Data taken from PubChem BioAssay (NCI).
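A five-concentration, 48-hour dose response in 96-well plates underlies each endpoint, interpolated linearly between surrounding concentrations. GI50 = concentration required for 50% inhibition of growth. TGI: concentration producing complete growth inhibition.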

Experiments:
Assay in all cases: NCI tumour cell line growth inhibition, 48 h
NCI-H226 lung = tested on: NCI-H226 lung
SF-295 CNS = tested on: SF-295 CNS
EKVX NSCLC = tested on: EKVX NSCLC
IGROV1 ovarian = tested on: IGROV1 ovarian
DU-145 prostate = tested on: DU-145 prostate
MOLT-4 leukemia = tested on: MOLT-4 leukemia
CAKI-1 renal = tested on: CAKI-1 renal
HS 578T breast = tested on: HS 578T breast
HCT-15 colon = tested on: HCT-15 colon
NCI-H522 lung = tested on: NCI-H522 lung
SN12C renal = tested on: SN12C renal

SMILES | TGI (NCI-H226 lung) [µM] | TGI (SF-295 CNS) [µM] | TGI (EKVX NSCLC) [µM] | TGI (IGROV1 ovarian) [µM] | TGI (DU-145 prostate) [µM] | TGI (MOLT-4 leukemia) [µM] | TGI (CAKI-1 renal) [µM] | TGI (HS 578T breast) [µM] | TGI (HCT-15 colon) [µM] | TGI (NCI-H522 lung) [µM] | TGI (SN12C renal) [µM] | GI50 (SN12C renal) [µM]
N#CCCC1C(C#N)C2(Cl)CC1(Cl)C(Cl)=C2Cl (stereo not drawn) | > 10 | > 10 | > 10 | > 10 | > 10 | > 10 | > 10 | > 10 | > 10 | > 10 | > 10 | –
CCCCCCCCCCCCCCNC(=O)CCC(NC(=O)c1ccc(N(C)Cc2cnc3nc(N)nc(N)c3n2)cc1)C(=O)NCCCCCCCCCCCCCC (stereo not drawn) | > 100 | 28.9 | > 100 | 27.3 | > 100 | 27.3 | > 100 | 29.1 | 28.2 | 32.4 | 33.8 | –
C=CCN1C[C@H](C)N([C@H](c2ccc(C(=O)NC(CC)CC)cc2)c2cccc(OC)c2)C[C@H]1C | > 100 | > 100 | > 100 | > 100 | > 100 | > 100 | 65.1 | > 100 | > 100 | 34.7 | > 100 | –
COC(=O)c1c(C)cccc1C1CN=NC12Cc1ccc(C)cc1C2=O (stereo not drawn) | > 100 | > 100 | > 100 | > 100 | > 100 | 84.7 | > 100 | > 100 | > 100 | 91.9 | > 100 | –
CC(=O)OC1CC(OC2C(O)CC(OC3C(O)CC(OC4CCC5(C)C(CCC6C5CC(O)C5(C)C(C7=CC(=O)OC7)CCC65O)C4)OC3C)OC2C)OC(C)C1OC1OC(CO)C(O)C(O)C1O (stereo not drawn) | 0.606 | 0.179 | 0.0981 | 1.11 | 0.106 | > 100 | 0.0904 | 0.525 | 0.16 | 0.114 | 0.112 | 0.0194
CC(=O)NC(Cc1ccc(O)cc1)C(=O)O (stereo not drawn) | > 100 | > 100 | > 100 | > 100 | > 100 | > 100 | > 100 | > 100 | > 100 | > 100 | > 100 | –
O=C1C=CC(=O)c2c1ccc1c3ccccc3n(CCCCCCCCCCCCn3c4ccccc4c4ccc5c(c43)C(=O)C=CC5=O)c21 | > 100 | > 100 | > 100 | > 100 | > 100 | > 90.5 | > 100 | > 100 | > 100 | > 100 | > 100 | –
N#Cc1c(N2CCCC2)ncn(-c2ccccc2)c1=O | > 100 | > 100 | > 100 | > 100 | > 100 | > 100 | > 100 | > 100 | > 100 | > 100 | > 100 | –
CCCCCCc1cc2cc(-c3csc(CC#N)n3)c(=O)oc2cc1O | > 71.1 | > 100 | > 100 | > 100 | > 100 | > 100 | > 100 | > 100 | > 100 | > 100 | > 100 | –
COc1ccc2cc(NC(=O)N/N=C\c3ccc([N+](=O)[O-])cc3)ccc2c1 | > 100 | > 100 | > 100 | > 100 | > 100 | > 100 | > 100 | > 100 | > 100 | 51 | > 100 | –
c1ccc(N=c2sc3ccccc3nc2Nc2ccccc2)cc1 | > 100 | > 100 | > 100 | > 100 | > 100 | > 100 | > 100 | > 100 | > 100 | > 100 | > 100 | –
O=C(N/N=C(/COc1ccc(Cl)cc1)N=Cc1ccncc1)c1ccncc1 | > 100 | > 100 | > 100 | > 100 | > 100 | > 100 | > 100 | > 100 | > 100 | > 100 | > 100 | –
Nc1nc(Cl)cc(NCC2(CO)CC(=O)C2)n1 | > 100 | > 100 | > 100 | > 100 | > 100 | > 100 | > 100 | > 100 | > 100 | > 100 | > 100 | –
COC(=O)C1SC(SC)=NC12c1ccccc1Nc1ccccc12 (stereo not drawn) | > 100 | > 100 | > 100 | > 100 | > 100 | 71.1 | > 100 | > 100 | > 100 | 49.3 | > 100 | –
COc1cccc(C(=O)O[C@H]2[C@@H]3[C@]4(OC(C)=O)CO[C@@H]4C[C@H](O)[C@@]3(C)C(=O)[C@H](OC(C)=O)C3=C(C)[C@@H](OC(=O)[C@H](O)[C@@H](NC(=O)OC(C)(C)C)c4ccco4)C[C@]2(O)C3(C)C)c1 | > 15.2 | 0.151 | > 28.9 | > 37.5 | > 37.5 | 9.99 | > 37.5 | 3.4 | > 16.4 | 0.157 | > 37.5 | –
CN1CCc2cc(N)cc3c2C1Cc1ccc(O)c(O)c1-3 (stereo not drawn) | 82.8 | > 100 | > 100 | > 100 | > 100 | 39.9 | > 100 | > 100 | > 100 | > 100 | > 100 | –
O=C1/C(=C/c2ccccc2)N=C2Sc3c(nc[nH]c3=O)N12 | > 100 | > 100 | > 100 | > 100 | > 100 | > 100 | > 100 | > 100 | > 100 | > 100 | > 100 | –
C[C@]12CCC(O)CC1=CC[C@@H]1[C@@H]2CC[C@]2(C)C(=O)[C@H](n3ccnc3)C[C@@H]12 (stereo partly drawn) | > 100 | > 100 | > 100 | > 100 | > 100 | 53.1 | > 100 | > 100 | > 100 | > 100 | > 100 | –
Nc1nc(SCCc2ccccc2)c2[nH]cnc2n1 | > 100 | > 100 | 78.8 | > 100 | > 100 | > 100 | > 100 | > 100 | > 100 | > 100 | > 100 | –

SMILES | TGI (NCI-H226 lung) [µM] | TGI (SF-295 CNS) [µM] | TGI (EKVX NSCLC) [µM] | TGI (IGROV1 ovarian) [µM] | TGI (DU-145 prostate) [µM] | TGI (MOLT-4 leukemia) [µM] | TGI (CAKI-1 renal) [µM] | TGI (HS 578T breast) [µM] | TGI (HCT-15 colon) [µM] | TGI (NCI-H522 lung) [µM] | TGI (SN12C renal) [µM] | GI50 (SN12C renal) [µM]
CCCN(C(=O)c1ccccc1)C(C#N)c1ccc(C(C#N)N(CCC)C(=O)c2ccccc2)cc1 (stereo not drawn) | 65.3 | > 100 | > 100 | > 100 | > 100 | > 100 | > 100 | 86.7 | > 100 | > 100 | > 100 | –
COC(=O)c1cc(=O)nc2sc3cccc(C)c3n12 | > 100 | > 100 | > 100 | > 100 | > 100 | > 100 | 61 | > 100 | > 100 | 48.3 | > 100 | –
Cc1ccccc1C(=O)N1CCc2c([nH]c3ccccc23)C1 | 65 | > 100 | 75 | > 100 | 84.5 | 80 | 79.5 | 84.8 | 62.1 | 46.1 | 34.1 | –
CCOC(=O)C(SCCO)C(C(=O)OCC)n1cnc2c(=O)[nH]c(NC(C)=O)nc21 (stereo not drawn) | > 100 | > 100 | > 100 | > 100 | > 100 | > 100 | > 100 | > 100 | > 100 | > 100 | > 100 | –
COC(=O)c1ccccc1CC1Cc2ccc3c(c2C1=O)CCCC3 (stereo not drawn) | > 100 | > 100 | > 100 | > 100 | > 100 | 46.5 | > 100 | > 100 | > 100 | > 100 | > 100 | –
CC1(C)OC(=O)N(c2ccccc2)C12C=Cc1cc([N+](=O)[O-])cc([N+](=O)[O-])c1O2 (stereo not drawn) | > 100 | > 100 | > 100 | > 100 | > 100 | > 100 | > 100 | > 100 | > 100 | > 100 | > 100 | –
CN1C(=O)C2CCC(=O)N2c2cccnc21 (stereo not drawn) | > 100 | > 100 | > 100 | > 100 | > 100 | > 100 | > 100 | > 100 | > 100 | > 100 | > 100 | –
C=CC1(C)CCC2C(=CCC3C2(C)CC(O)C(O)C3(C)COC2OC(C(=O)O)C(O)C(O)C2O)C1 (stereo not drawn) (tested in a mixture with another compound) | > 100 | > 100 | > 100 | > 100 | > 100 | > 100 | > 100 | > 100 | > 100 | > 100 | > 100 | –
C1CN(c2nc3c(nnc4nc(N5CCOCC5)sc43)s2)CCO1 | > 100 | > 100 | > 100 | > 100 | > 100 | > 100 | > 100 | > 100 | > 100 | > 100 | > 100 | –
NC(N)=N/N=C/c1c(-c2ccc(N)cc2)nc2sccn12 | > 100 | 55.6 | 61.1 | > 100 | 35.5 | 73.9 | > 100 | > 100 | > 100 | 76 | 48.7 | –
COc1cc2nc3n(c(=O)c2cc1OC)-c1ccc([N+](=O)[O-])cc1C3=O | > 100 | > 100 | > 100 | > 100 | > 100 | > 100 | 92.1 | > 100 | > 100 | > 100 | > 100 | –
O=C1/C(=C\c2ccccc2)C(NC2CCCCC2)c2ccccc21 (stereo not drawn) | 14.1 | 33.5 | 11.2 | 10.4 | 3.09 | 3.02 | 2.83 | 16.3 | 5.79 | 2.05 | 4.37 | –
CC[C@@H]1CC[C@@H]2[C@H](CC[C@]3(C)[C@@H](OC(C)=O)CC[C@@H]23)[C@H]1COC(C)=O | 52.5 | 65.1 | 73.6 | > 100 | > 100 | 37 | > 100 | > 100 | 56 | 56.1 | 60.9 | –
COc1cc2c(c(OC)c1OC)C(=O)[C@@H]1[C@H]2N1C(N)=O | > 100 | > 100 | > 100 | > 100 | > 100 | > 100 | > 100 | > 100 | > 100 | > 100 | > 100 | –
Cc1ccc([N+](=O)[O-])cc1NC1=NCCO1 | > 100 | > 100 | > 100 | > 100 | > 100 | > 100 | > 100 | > 100 | > 100 | > 100 | > 100 | –
CCOC(=O)CSc1c(C(=O)OCC)c(=O)n(-c2ccccc2)c(=S)n1-c1ccccc1 | > 100 | > 100 | > 100 | > 100 | > 100 | > 100 | > 100 | > 100 | > 100 | > 100 | > 100 | –
CC(C)(C)OC(=O)NCCCCC1NC(=O)[C@@H]2Cc3c([nH]c4ccccc34)C(C3CCCCC3)N2C1=O (stereo partly drawn) | > 100 | 63 | > 100 | > 100 | > 100 | 44.9 | > 100 | > 100 | > 100 | > 100 | > 100 | –
O=C1CSC(c2ccc(Cl)cc2)N1c1ccc(Oc2ccc(Cl)cc2)c(Cl)c1 (stereo not drawn) | 36.5 | 30.8 | 27.2 | 31.2 | 27.2 | 45 | 26 | 27.5 | 29.5 | 23.3 | 38.6 | –
